Laboratory results reported in ChEMBL document CHEMBL1158665, “Antipoliovirus structure-activity relationships of some aporphine alkaloids” (J Nat Prod, 1998).
Counter-ions that a name gives are not always drawn.

Assays:
[1] = Cytotoxicity against african green monkey Vero cells; format: cell-based; conditions: chlorocebus sabaeus
[2] = Cytotoxicity against african green monkey Vero cells assessed as drug concentration at which no cellular alteration was microscopically detected; format: cell-based; conditions: chlorocebus sabaeus, read-out: MTC
[3] = system: Poliovirus 2; experiment: Antiviral activity against Poliovirus 2 Sabin 2 infected in african green monkey Vero cells at 0.001 multiplicity of infection assessed as inhibition of virus-induced cytopathogenicity; format: functional; conditions: Enterovirus C, Sabin 2, Vero; read-out: ED50 (the source's name)
[4] = Selectivity index, ratio of CC50 for african green monkey Vero cells to ED50 for Poliovirus 2 Sabin 2; format: toxicity, cell-based
[5] = system: Poliovirus 2; experiment: Antiviral activity against Poliovirus 2 Sabin 2 in african green monkey Vero cells assessed as log reduction in virus titers after at 0.1 multiple round of replication at their respective maximum tolerated concentration after 32 hrs; format: functional
[6] = system: Poliovirus 2; experiment: Antiviral activity against Poliovirus 2 Sabin 2 in african green monkey Vero cells assessed as log reduction in virus titers after at 0.001 multiple round of replication at their respective maximum tolerated concentration after 32 hrs; format: functional
[7] = system: Poliovirus 2; experiment: Antiviral activity against Poliovirus 2 Sabin 2 in african green monkey Vero cells assessed as log reduction in virus titers after at 0.01 multiple round of replication at their respective half the maximum tolerated concentration after 32 hrs; format: functional
[8] = system: Poliovirus 2; experiment: Antiviral activity against Poliovirus 2 Sabin 2 in african green monkey Vero cells assessed as log reduction in virus titers after at 0.01 multiple round of replication at their respective maximum tolerated concentration after 32 hrs; format: functional
[9] = system: Poliovirus 2; experiment: Antiviral activity against Poliovirus 2 Sabin 2 in african green monkey Vero cells assessed as log reduction in virus titers after at 0.1 multiple round of replication at their respective half of maximum tolerated concentration after 32 hrs; format: functional
[10] = system: Poliovirus 2; experiment: Antiviral activity against Poliovirus 2 Sabin 2 in african green monkey Vero cells assessed as log reduction in virus titers after at 0.001 multiple round of replication at their respective half the maximum tolerated concentration after 32 hrs; format: functional

Row | SMILES | CC50 [1] | MNTC [2] | EC50 [3] | selectivity ratio [4] | Activity [5] | Activity [6] | Activity [7] | Activity [8] | Activity [9] | Activity [10]
1 | COc1cc2c(cc1O)C[C@@H]1NCCc3cc4c(c-2c31)OCO4 [ACTINODAPHNINE] | 107 µM | 95 µM |  |  |  |  |  |  |  | 
2 | COc1c2c3c(c4c1OCO4)-c1ccccc1[C@H](O)[C@H]3N(C)CC2 [GUATTERINE] | 107 µM | 62 µM | 62 µM | 1.7 |  |  |  |  |  | 
3 | COc1cc2c(cc1O)C[C@H]1c3c(cc4c(c3-2)OCO4)CCN1C [CASSYTHICINE] | 47 µM | 31 µM |  |  |  |  |  |  |  | 
4 | COc1ccc2c(c1)[C@H](O)[C@@H]1c3c(cc4c(c3-2)OCO4)CCN1C [OLIVERIDINE] | 7 µM | 5 µM |  |  |  |  |  |  |  | 
5 | COc1ccc2c(c1)[C@H](OC)[C@@H]1c3c(cc4c(c3-2)OCO4)CCN1C [OLIVERINE HCL] | 9 µM | 7 µM |  |  |  |  |  |  |  | 
6 | CO[C@H]1c2ccccc2-c2c3c(cc4c2[C@@H]1NCC4)OCO3 [PACHYPODANTINE] | 25 µM | 20 µM |  |  |  |  |  |  |  | 
7 | COc1cc2c(cc1OC)-c1c(OC)c(OC)cc3c1[C@H](C2)N(C(C)=O)CC3 | 342 µM | 250 µM | 50 µM | 6.8 | 1.5 | 1.5 | 0.5 | 1.5 | 0.5 | 1
8 | COc1cccc2c1C(=O)c1nccc3cc4c(c-2c13)OCO4 [OXOSTEPHANINE] | 28 µM | 15 µM |  |  |  |  |  |  |  | 
9 | O=C1c2ccccc2-c2c3c(cc4ccnc1c24)OCO3 [LIRIODENINE] | 48 µM | 31 µM |  |  |  |  |  |  |  | 
10 | COc1cc2ccnc3c2c(c1OC)-c1ccccc1C3=O [LYSICAMINE] | 500 µM | 250 µM |  |  |  |  |  |  |  | 
11 | COc1cc2c(cc1O)C[C@H]1c3c(cc(O)c(OC)c3-2)CCN1C [BOLDINE] | 250 µM | 125 µM | 125 µM | 2 |  |  |  |  |  | 
12 | COc1cc2c(cc1OC)-c1c(OC)c(OC)cc3c1[C@H](C2)N(C)CC3.O=C(O)/C=C/C(=O)O [GLAUCINE FUMARATE] | 142 µM | 62 µM | 9 µM | 15.8 | 1 | 3 | 1 | 1.5 | 0.5 | 1.5
13 | COc1cc2c(cc1O)C[C@@H]1NCCc3cc(O)c(OC)c-2c31 [NORBOLDINE] | 95 µM | 62 µM | 62 µM | 1.5 |  |  |  |  |  | 
14 | COc1cc2c(cc1O)C[C@H]1c3c(cc(OC)c(OC)c3-2)CCN1C | 250 µM | 125 µM | 15 µM | 16.7 | 1 | 2.5 | 1 | 1.5 | 0.5 | 1
15 | COc1cc2c(cc1O)C[C@@H]1NCCc3cc(OC)c(OC)c-2c31 [LAUROTETANINE] | 165 µM | 62 µM | 31 µM | 5.3 | 1 | 1.5 | 1 | 1.5 | 0.5 | 1
16 | COc1cc2c3c(c1OC)-c1ccccc1C[C@H]3N(C)CC2.Cl [NUCIFERINE HYDROCHLORIDE] | 435 µM | 125 µM | 26 µM | 16.7 | 1 | 2 | 0.5 | 1 | 0.5 | 0.5
17 | CO[C@H]1c2ccccc2-c2c3c(cc4c2[C@@H]1N(C)C[C@@H]4O)OCO3 [PACHYSTAUDINE] | 68 µM | 62 µM | 31 µM | 2.2 | 0 | 0.5 |  | 0.5 |  | 
18 | COc1cc2c(cc1O)C[C@H]1c3c(cc(OC)c(O)c3-2)CCN1C.Cl [ISOBOLDINE HYDROCHLORIDE] | 217 µM | 125 µM | 15 µM | 14.5 | 1.5 | 2.5 | 1 | 1.5 | 1 | 1.5
